“Also recorded” adds a separate entry of the source. Read-outs that look alike come from different tables or passages of the source.
Experiments:
UGT1A1 = settings: cited from earlier work
[1] = Phase 1 clinical DDI study: steady-state plasma PK (noncompartmental analysis) with and without modafinil; format: in vivo, Human; settings: for AUC(0-t) / half-life / Cmax: human
Experimental: Encorafenib 450 mg QD and binimetinib 45 mg BID were administered starting on Day 1. Patients then received continuous treatment of 400 mg QD modafinil on Day 15 through Day 21. Blood samples for measurement of plasma concentrations of encorafenib (and its metabolite, LHY746) and binimetinib (and its active metabolite, AR00426032), were collected at 0, 1, 2, 3, 4, 6 and 8 h post dose on Day 14 and Day 21.
Human PK plasma samples were analyzed for quantitation of all PK analytes at PPD (Middleton, Wisconsin, US) using validated, sensitive, and specific HPLC/MS/MS methods in compliance with laboratory SOPs.
PK parameters including, but not limited to, Cmax and AUClast were calculated for each participant using noncompartmental analysis (NCA) methods using the WinNonlin software package (Phoenix WinNonlin Professional, version 8.0 Pharsight Corporation, Mountain View, California) for PK analytes including encorafenib and its metabolite LHY746, and binimetinib and its metabolite AR00426032.
All patients who received at least one dose of any study drug were included in the Safety Set population. The Evaluable PK Set included all patients with sufficient concentration data to calculate at least one PK parameter for encorafenib and binimetinib on Days 14 and 21. Patients who discontinued, missed 3 or more consecutive doses of encorafenib prior to completion of the last PK sampling on Day 14, or required a dose reduction of encorafenib prior to completion of the last PK sampling on Day 14 were excluded from the Evaluable PK set. In addition, patients who missed any dose of study drugs on any of the PK days, or who vomited within 4 h after dosing on any of the PK days were excluded from Evaluable PK set.
An analysis of variance (ANOVA) was performed on the natural log (ln)-transformed Cmax and AUClast of encorafenib, LHY746, binimetinib, and AR00426032. The least squares means (LSM) geometric mean ratio (GMR) and associated 90% confidence interval (CI) for each PK parameter were calculated using the exponentiation of the difference between treatment LSM from the analyses on the ln-transformed parameters and expressed as a percentage of Day 21 relative to Day 14.

[2] = Day 21 (with modafinil) relative to Day 14 (without)
[3] = Day 21, with modafinil 400 mg QD, steady state, plasma, patients

Cn1cnc2c(F)c(Nc3ccc(Br)cc3F)c(C(=O)NOCCO)cc21 [Binimetinib, binimetinib]
Contribution of UGT1A1-mediated metabolism to metabolism (UGT1A1): up to 61%
AUClast GMR (geometric mean ratio) [1, 2]: 0.957
Cmax GMR (geometric mean ratio) [1, 2]: 1
Cmax GMR (geometric mean ratio) ([1]; Day 21 (with modafinil) relative to Day 14 (without), listed as binimetinib): 1.00
Cmax, Median (range) [1, 3]: 686 (424–923) ng/mL
Tmax, Median (range) [1, 3]: 1.00 (0.95–2.10) hr
Effect of steady-state modafinil on exposure/PK (in words) ([1]; Day 21 vs Day 14, modafinil 400 mg QD): similar; also recorded: no change
Time at which mean plasma concentrations typically reach peak levels, postdose ([1]; Days 14 and 21, steady state): 1 h
AUC(0-t) ([1]; plasma, oral, 400 mg, Day 21, with modafinil 400 mg QD, steady state, plasma, patients, read-out: AUClast, GM (CV%)): 2290 ng·h/mL
AUC(0-t) ([1]; plasma, oral, 400 mg, Day 21, with modafinil 400 mg QD, steady state, plasma, patients, read-out: AUClast, Median (range)): 2430 ng·h/mL
half-life ([1]; plasma, oral, 400 mg, Day 21, with modafinil 400 mg QD, steady state, plasma, patients, read-out: T1/2, GM (CV%) (converted)): 4.55 h
half-life ([1]; plasma, oral, 400 mg, Day 21, with modafinil 400 mg QD, steady state, plasma, patients, read-out: T1/2, Median (range) (converted)): 4.47 h
AUC(0-t) ([1]; plasma, oral, Day 14, without modafinil, steady state, plasma, patients, read-out: AUClast, GM (CV%)): 2400 ng·h/mL
AUC(0-t) ([1]; plasma, oral, Day 14, without modafinil, steady state, plasma, patients, read-out: AUClast, Median (range)): 2670 ng·h/mL
Cmax ([1]; plasma, oral, Day 14, without modafinil, steady state, plasma, patients, read-out: Cmax, Median (range)): 609 ng/mL
half-life ([1]; plasma, oral, Day 14, without modafinil, steady state, plasma, patients, read-out: T1/2, GM (CV%) (converted)): 4.62 h
half-life ([1]; plasma, oral, Day 14, without modafinil, steady state, plasma, patients, read-out: T1/2, Median (range) (converted)): 5.15 h
Cmax ([1]; plasma, po, Day 14, without modafinil, steady state, encorafenib 450 mg QD + binimetinib 45 mg BID oral, plasma, patients, read-out: Cmax, GM (CV%)): 660 ng/mL
Cmax ([1]; plasma, po, Day 21, with modafinil 400 mg QD Days 15-21, steady state, encorafenib 450 mg QD + binimetinib 45 mg BID oral, plasma, patients, read-out: Cmax, GM (CV%)): 663 ng/mL

Source: PMC11420244, “Evaluation of the effect of modafinil on the pharmacokinetics of encorafenib and binimetinib in patients with BRAF V600-mutant advanced solid tumors” (Cancer Chemotherapy and Pharmacology, 2024)
